Reference: patent publication US8530404B2, “Compounds and methods for treatment of cancer” (FibroGen, Inc., priority 2005, dated 2013)
Marks after values point to notes of the source that are not given here.

Columns and labels:
HCT116-GFP colon tumors = assay: Orthotopically implanted human HCT116-GFP colon tumor mouse xenograft (Example 4); type: in vivo; details: 60 mg/kg intraperitoneal at four day intervals, three doses
Experimental: Procedures were carried out as described above for Example 3, except that the tumors of GFP-transfected H-460 cells were replaced with HCT116-GFP colon tumors, and surgical orthotopic implantation was directly into colon tissue.
The HCT116 tumor model used here is a well-characterized representative colon xenograft model. The isolation of the human HCT116 tumor cell line from a human colon carcinoma has been described. (Brattain et al (1981) Cancer Res 41:1751-1756.) To aid in the detection of tumors and metastases, HCT116 cells were transduced with genes directing the expression of fluorescent proteins (e.g., HCT116-GFP). The use of fluorescent HCT116-derived tumors in similar studies has been described previously. (Ross et al (2000) Nat Genet 24:227-235.)
HCT116-GFP tumor fragments harvested from the stock animals were transplanted into animals by surgical orthotopic implantation (SOI) as follows. The animals were anesthetized with isoflurane and the surgical area was sterilized using iodine and alcohol. After proper exposure of the colon following a lower midline abdominal incision, the serosa of the colon was removed and two pieces of 1 mm^3 tumor fragments per mouse were implanted. An 8-0 surgical suture was used to penetrate these small tumor pieces and suture them on the wall of the intestine. The intestine was then returned to the abdominal cavity. The incision in the abdominal wall was closed with a 6-0 surgical suture in one layer. The animals were kept under isoflurane anesthesia during surgery. All procedures of the operation described above were performed under a 7× magnification microscope (Olympus). Animals were kept in a barrier facility under HEPA filtration.
Administration of Compound A or 5-FU (5-Flurouracil) to the animals was initiated three days following tumor transplantation. 5-FU, a chemotherapeutic agent used as a positive control, was administered by intraperitoneal injection (60 mg/kg) at four day intervals for a total of three doses. Compound A was administered at either 20 mg/kg or 60 mg/kg three times per week. Tumor volumes were measured at day 15, day 22, and day 29.

[1] = system: human H-460-GFP lung tumors; assay: Orthotopically implanted human H-460-GFP lung tumor mouse xenograft, survival and metastasis (Example 3); type: in vivo; details: 7.5 mg/kg i.v. on days 3, 7, 11
Experimental: To examine the effect of methods and compounds of the present invention in a metastatic model of tumor progression, compounds of the invention were administered to orthotopically implanted H-460-GFP xenografted animals. Tumor models employing surgical orthotopic implantation (SOI) into the organ of origin of the original tumor are regarded as representative of cancer progression and metastasis in humans. Orthotopic implantation of H-460 increases the rate of tumor metastasis.
This experiment is carried out as described in Example 1 above, with the following modifications. To aid in identification and scoring of metastasis, the human H-460 lung cancer cell line was replaced by genetically-engineered tumors of GFP-transfected H-460 cells. 1-2 mm^3 H460-GFP lung tumor fragments were implanted by surgical orthotopic implantation (SOI) and sutured directly into lung tissue. (Yang et al., (1998) Cancer Res 58:4217-4221.) Dosing was initiated immediately after successful confirmation of tumor take by fluorescent GFP imaging (˜5 days following tumor implantation). Doxorubicin (DOX, 7.5 mg/kg, i.v. administration) was used as a chemotherapy control, and was administered on treatment days 3, 7, and 11.
In addition to weekly caliper measurement of primary tumor size, GFP imaging was performed on animals to monitor primary tumor progression and metastasis, starting the first day of treatment. Study endpoints were reached when an average tumor size of 2 cc or three morbid mice appear in any one group, whichever occurs first, regardless of treatment duration. Each animal was checked daily for mortality or signs of morbidity. Morbid animals were frozen. All animals, including dead animals, were examined by GFP imaging for primary tumor and metastasis at necropsy. Imaging and caliper measurements were used to determine the effects of treatment. Primary tumors were excised, measured and weighed at necropsy. Blood samples were taken during terminal sacrifice and complete blood counts (CBC) and reticulocyte analysis were performed.
Tumor metastasis is associated with increased morbidity and mortality in humans with metastatic cancer and in animal models of metastatic cancer. […] The increased morbidity and mortality were recorded and animals were preserved for subsequent necropsy. The study was terminated after >3 animals were found morbid in the vehicle group on treatment day 14, at which point the remaining animals were sacrificed to evaluate and compare tumor progression in the various treatment groups.
To determine metastatic frequency, the thoracic and abdominal cavities of animals were examined by fluorescent imaging.

human H-460 lung tumors = assay: Subcutaneously implanted human H-460 lung tumor mouse xenograft (Example 1); type: in vivo; details: 15 mg/kg i.v.
From the text: Immuno-compromised athymic CD-1 nu/nu nude mice males (5-6 weeks old) were used in this study (Charles River Laboratories, Wilmington, Mass.). Animals were maintained in a HEPA-filtered environment during the experimental period. Cages, food, and bedding were autoclaved. Animal diets were obtained from Harlan Teklad (Madison, Wis.). […] The human H460 lung cancer cell line used was obtained from the National Cancer Institute. (Brower et al., (1986) Cancer Res 46:798-806.) Xenografted H-460 tumors are sensitive to chemotherapeutics commonly used in treatment of lung cancer. […] A stock tumor was established by subcutaneously injecting a cell suspension into nude mice. The resulting tumor was maintained in nude mice subcutaneously as tumor stock prior to use. Tumor implantation was performed when the stock tumors were in log phase of growth. Before implantation, tumor tissue was harvested from stock mice and placed in RPMI-1640 medium. Necrotic tissues were dissected away and viable tissues were cut into 1-2 mm^2 pieces. Tumor fragments were then transplanted subcutaneously to the right flank of the nude mice. Treatment (administration of compounds of the present invention) was started when the inoculated tumors reached approximately 100 mm^3, and continued for four weeks. […] [table] Sizes of the primary tumors were measured through the skin with calipers once per week. […] Body weight of the mice in each group was also measured once per week during the experimental period. All animals were sacrificed following thirty-two days of treatment. Primary tumors were excised and weighed on an electronic balance. Blood samples were taken during terminal sacrifice and placed in microhematocrit tubes containing EDTA. Complete Blood Counts (CBC) and reticulocyte analysis were performed with the Cell Dyn 3700 analyzer (Abbott Diagnostics), as described by the manufacturer.

[2] = Body weight in H-460 xenograft mice (Example 1); type: in vivo, mouse; details: 15 mg/kg i.v.
Experimental: (§1) Sizes of the primary tumors were measured through the skin with calipers once per week. Tumor volumes were calculated by the formula V═(W^2*L)/2. Body weight of the mice in each group was also measured once per week during the experimental period. All animals were sacrificed following thirty-two days of treatment. Primary tumors were excised and weighed on an electronic balance. Blood samples were taken during terminal sacrifice and placed in microhematocrit tubes containing EDTA. Complete Blood Counts (CBC) and reticulocyte analysis were performed with the Cell Dyn 3700 analyzer (Abbott Diagnostics), as described by the manufacturer.
Thus, differences in tumor progression as measured by mean tumor volumes could not be attributed to any generalized toxicity or suppression of normal metabolism that might have been detected by changes in body weights.

[3] = Complete blood counts and reticulocyte analysis in H-460 xenograft mice (Example 1); type: in vivo, mouse; details: study end; 15 mg/kg i.v.
Experimental: as §1

H460 tumor cells = assay: Subcutaneous H460 lung tumor xenograft, tumor growth delay study in combination with chemotherapeutics (Example 6); type: in vivo, mouse; details: Cmpd A 60 mg/kg p.o., paclitaxel 15 mg/kg i.v., carboplatin 120 mg/kg i.p.; for Median TTE (Time-to-Endpoint, tumor volume >= 2 cc): vehicle group 16.2
Experimental: This study was used to determine the effect of combined treatments where compounds and methods of the invention were combined with conventional anti-tumor therapies. These experiments were performed essentially as described above in Example 3, except that 1×10^7 H460 tumor cells were implanted subcutaneously to the flanks of female Harlan nude animals. The number of animals in each group was 10. Treatments were initiated when tumors reached an average size of approximately 100 mm^3.
The study design was representative of tumor progression studies of the TGD (Tumor Growth Delay) type, using a protocol that required individual animals to be humanely euthanized after reaching a set endpoint of tumor volume greater than or equal to 2 cc.
These two chemotherapeutic agents are of two broad classes of conventional anti-tumor therapeutics: microtubule poisons (paclitaxcel); and DNA-directed agents, including the sub-classification of DNA alkylating agents (carboplatin). In tumor-bearing human patients, conventional anti-tumor therapy commonly use of one or both classes of chemotherapeutic agents.
The study was initiated with administration of conventional anti-tumor treatment or vehicle control, and followed one day after with administration of Compound A or vehicle control. […] (See Table 11 and Table 12 for compound and chemotherapeutic agent dosing schedule.)
Tumor progression was determined for each treatment group and is presented as median Time-to-Endpoint (TTE).

human A549 lung tumors = assay: Subcutaneously implanted human A549 lung tumor mouse xenograft (Example 2); type: in vivo

O=c1[nH]cc(F)c(=O)[nH]1 [Compound 5-FU, 5-Flurouracil, reference compound]
mean tumor volume (calipers, mean +/- SD) (HCT116-GFP colon tumors; Treatment Day 15): 0 +/− 0
mean tumor volume (calipers, mean +/- SD) (HCT116-GFP colon tumors; Treatment Day 22): 1 +/− 4
mean tumor volume (calipers, mean +/- SD) (HCT116-GFP colon tumors; Treatment Day 29): 8 +/− 13

COc1cccc2c1C(=O)c1c(O)c3c(c(O)c1C2=O)C[C@@](O)(C(=O)CO)C[C@@H]3O[C@H]1C[C@H](N)[C@H](O)[C@H](C)O1 [DOX, Doxorubicin, reference compound]
Metastatic Incidence (proportion of animals exhibiting mediastinal lymph node metastasis) ([1]; vehicle 9/10): 4/10^#
proportion of surviving animals ([1]; treatment day 9): 10/10
proportion of surviving animals ([1]; treatment day 11): 10/10
proportion of surviving animals ([1]; treatment day 12): 10/10
proportion of surviving animals ([1]; treatment day 13): 10/10
proportion of surviving animals ([1]; treatment day 14): 10/10

CC(=O)O[C@H]1C(=O)[C@@]2(C)[C@H]([C@H](OC(=O)c3ccccc3)[C@]3(O)C[C@H](OC(=O)[C@H](O)[C@@H](NC(=O)c4ccccc4)c4ccccc4)C(C)=C1C3(C)C)[C@]1(OC(C)=O)CO[C@@H]1C[C@@H]2O [Taxol, paclitaxel, reference compound]
mean tumor volume (human H-460 lung tumors; day 0): 83 mm^3
mean tumor volume (human H-460 lung tumors; day 10): 387 mm^3
mean tumor volume (human H-460 lung tumors; day 17): 813** mm^3
mean tumor volume (human H-460 lung tumors; day 24): 1160** mm^3
mean tumor volume (human H-460 lung tumors; day 31): 1292** mm^3
Mean Tumor Weight at Necropsy (human H-460 lung tumors; day 32): 1.59 g
mean animal body weight ([2]; day 0): 26.6 grams
mean animal body weight ([2]; day 10): 29.5 grams
mean animal body weight ([2]; day 17): 30.6 grams
mean animal body weight ([2]; day 24): 31.1 grams
mean animal body weight ([2]; day 31): 30.9 grams
Abs Retic (reticulocyte count) [3]: 462
Baso % [3]: 0.67%
Baso (basophils) [3]: 70 µL⁻¹
EOS % [3]: 0.83%
Eos (eosinophil count) [3]: 70 µL⁻¹
HCT (hematocrit) [3]: 41.5%
HGB (hemoglobin) [3]: 14.1 g/dL
IRF (immature RET fraction) [3]: 0.56
Lymph % [3]: 24.7%
Lymph (lymphocytes) [3]: 2600 µL⁻¹
MCH (mean corpuscular hemoglobin) [3]: 15.6 pg
MCV (mean corpuscular volume) [3]: 45.9 fL
Mono (monocytes) [3]: 300 µL⁻¹
Neut % [3]: 70.8%
Neut (neutrophils) [3]: 7400 µL⁻¹
PLAT (platelets) [3]: 1.943e+06 µL⁻¹
RBC (red blood cells) [3]: 9.03e+06 µL⁻¹
RDW (RBC distribution width) [3]: 21.8%
RET (reticulocytes) [3]: 5.1%
WBC (white blood cells) [3]: 10400 µL⁻¹
% TGD, Percent Tumor Growth Delay (vs. Group control) (H460 tumor cells): 104%
T-C (Test-control, difference of medians) (H460 tumor cells): 16.9 days
Median TTE (Time-to-Endpoint, tumor volume >= 2 cc) (H460 tumor cells): 33.1 days
tumor weight at necropsy, Mean (human A549 lung tumors; 15 mg/kg i.v.): 0.45 g
A549 mean tumor volume (human A549 lung tumors; week 0, 15 mg/kg i.v.): 106 mm^3
A549 mean tumor volume (human A549 lung tumors; week 1, 15 mg/kg i.v.): 130 mm^3
A549 mean tumor volume (human A549 lung tumors; week 2, 15 mg/kg i.v.): 152 mm^3
A549 mean tumor volume (human A549 lung tumors; week 3, 15 mg/kg i.v.): 177 mm^3
A549 mean tumor volume (human A549 lung tumors; week 4, 15 mg/kg i.v.): 179 mm^3
A549 mean tumor volume (human A549 lung tumors; week 5, 15 mg/kg i.v.): 186 mm^3
A549 mean tumor volume (human A549 lung tumors; week 6, 15 mg/kg i.v.): 231 mm^3
A549 mean tumor volume (human A549 lung tumors; week 7, 15 mg/kg i.v.): 275 mm^3
A549 mean tumor volume (human A549 lung tumors; week 8, 15 mg/kg i.v.): 347 mm^3
A549 mean tumor volume (human A549 lung tumors; week 9, 15 mg/kg i.v.): 360 mm^3
increase in mean tumor volume (human A549 lung tumors; within 1 week (7 days) from start, Taxol 15 mg/kg i.v., vehicle control 45%): 23%

N.N.O=C([O-])C1(C(=O)[O-])CCC1.[Pt+2] [carboplatin]
% TGD, Percent Tumor Growth Delay (vs. Group control) (H460 tumor cells): 107%
T-C (Test-control, difference of medians) (H460 tumor cells): 17.3 days
Median TTE (Time-to-Endpoint, tumor volume >= 2 cc) (H460 tumor cells): 33.5 days
